The target of this test is human-cGAS (h-cGAS) (Homo sapiens, UniProt Q8N884). In words: hcGAS Kinase-Glo Assay. The settings on record: 40 nM h-cGAS, 100 μM ATP, 100 μM GTP, 25 nM dsDNA, 3 h incubation, read-out: hcGAS potency IC50. In kind it is biochemical. The procedure:
In some embodiments, the compounds of the instant disclosure may be tested for their human-cGAS (h-cGAS) inhibition activity using the methodology reported in Lama et al., “Development of human cGAS-specific small molecule inhibitors for repression of double stranded DNA (dsDNA)-triggered interferon expression”, Nature Communications 10, Article number: 2261 (2019), incorporated herein by reference. hcGAS Kinase-Glo Assay Compounds were tested for their human-cGAS (h-cGAS) inhibition activity using the methodology reported in Lama et al., “Development of human cGAS-specific small molecule inhibitors for repression of double stranded DNA (dsDNA)-triggered interferon expression”, Nature Communications 10. Article number: 2261 (2019), which is herein incorporated by reference in its entirety, with slight changes to some conditions as shown in Table B. The results of the assays, expressed in IC50 ranges are reported in Table C with the following designations: A represents an IC50 value <0.1 μM; B represents an IC50 value ≥0.1 μM and <0.5 μM; C represents an IC50 value ≥0.5 μM and <1.0 μM; D represents an IC50 value ≥1.0 μM. [table]
On the technique in general: In Kinase-Glo more light means more ATP remaining.
Sequence of human-cGAS (h-cGAS) (Q8N884 whole entry): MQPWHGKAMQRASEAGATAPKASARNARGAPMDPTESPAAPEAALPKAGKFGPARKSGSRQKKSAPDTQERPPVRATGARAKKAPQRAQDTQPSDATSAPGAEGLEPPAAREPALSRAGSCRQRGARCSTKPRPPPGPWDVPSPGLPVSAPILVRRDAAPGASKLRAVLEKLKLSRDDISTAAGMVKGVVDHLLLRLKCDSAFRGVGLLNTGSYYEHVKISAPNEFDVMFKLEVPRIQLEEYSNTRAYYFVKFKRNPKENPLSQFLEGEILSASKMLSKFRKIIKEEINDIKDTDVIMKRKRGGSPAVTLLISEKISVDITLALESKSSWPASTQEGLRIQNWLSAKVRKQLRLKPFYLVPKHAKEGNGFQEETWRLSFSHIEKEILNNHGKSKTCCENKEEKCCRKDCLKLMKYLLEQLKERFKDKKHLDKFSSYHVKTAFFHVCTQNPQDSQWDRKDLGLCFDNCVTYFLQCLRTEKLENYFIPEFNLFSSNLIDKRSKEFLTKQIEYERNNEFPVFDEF
For orientation: IC50 means the midpoint of a concentration-inhibition curve. Consider `O=C(Nc1nnc(-c2ccccc2Cl)s1)c1nnc(N2CCC[C@@H]2c2ccccn2)o1` [Compound 117, (R)-N-(5-(2-chlorophenyl)-1,3,4-thiadiazol-2-yl)-5-(2-(pyridin-2-yl)pyrrolidin-1-yl)-1,3,4-oxadiazole-2-carboxamide], for which the IC50 fell in the range of 100 to 500 nM.

Regarding `CSc1nnc(NC(=O)c2nnc(Cc3cccc(Cl)c3)o2)s1` [Compound 44, 5-(3-chlorobenzyl)-N-(5-(methylthio)-1,3,4-thiadiazol-2-yl)-1,3,4-oxadiazole-2-carboxamide], the IC50 was at least 1000 nM.

In the case of `CSc1nnc(NC(=O)c2cc(-c3nccs3)no2)s1` [Compound 142, N-(5-(methylthio)-1,3,4-thiadiazol-2-yl)-3-(thiazol-2-yl)isoxazole-5-carboxamide], the IC50 was in the range of 500 to 1000 nM.

Turning to `CSc1nnc(NC(=O)c2cc(-c3ccccc3-c3cccc(CC(=O)O)c3)cc(=O)o2)s1` [Compound 177, 2-(2′-(6-((5-(methylthio)-1,3,4-thiadiazol-2-yl)carbamoyl)-2-oxo-2H-pyran-4-yl)-[1,1′-biphenyl]-3-yl)acetic acid], the IC50 is 500 to 1000 nM.

For the compound `O=C(Nc1nnc(-c2ccccc2Cl)s1)c1cc(O)no1` [Compound 55, N-(5-(2-chlorophenyl)-1,3,4-thiadiazol-2-yl)-3-hydroxyisoxazole-5-carboxamide], the IC50 was under 100 nM.

With `CSc1nnc(NC(=O)c2onc3c2CCc2scnc2-3)s1` [Compound 171, N-(5-(methylthio)-1,3,4-thiadiazol-2-yl)-4,5-dihydrothiazolo[5′,4′:5,6]benzo[1,2-c]isoxazole-3-carboxamide], the IC50 is at least 1000 nM.

Turning to `CSc1nnc(NC(=O)c2noc(N3CCC(C)(C)CC3)n2)s1` [Compound 102, 5-(4,4-dimethylpiperidin-1-yl)-N-(5-(methylthio)-1,3,4-thiadiazol-2-yl)-1,2,4-oxadiazole-3-carboxamide], the IC50 was at least 1000 nM.

On to `CSc1nnc(NC(=O)c2nnn(Cc3ccccc3)n2)s1` [Compound 134, 2-benzyl-N-(5-(methylthio)-1,3,4-thiadiazol-2-yl)-2H-tetrazole-5-carboxamide], for which the IC50 was at least 1000 nM.

Turning to `CSc1nnc(NC(=O)c2cc(-c3ccccc3Cl)cc(=O)o2)s1` [Compound 251, 4-(2-chlorophenyl)-N-(5-methylsulfanyl-1,3,4-thiadiazol-2-yl)-6-oxo-pyran-2-carboxamide], the IC50 is 100 to 500 nM.

Take `O=C(Nc1nnc(-c2ccccc2Cl)s1)c1ccc(O)c(=O)o1` [Compound 64, N-(5-(2-chlorophenyl)-1,3,4-thiadiazol-2-yl)-3-hydroxy-2-oxo-2H-pyran-6-carboxamide]: the half-inhibitory concentration (IC50) is under 100 nM.

As to `Cn1cc(-c2cc(C(=O)Nc3nnc(-c4ccccc4Cl)s3)on2)cn1` [Compound 52, N-(5-(2-chlorophenyl)-1,3,4-thiadiazol-2-yl)-3-(1-methyl-1H-pyrazol-4-yl)isoxazole-5-carboxamide], the IC50 was in the range of 100 to 500 nM.

For `CSc1nnc(NC(=O)c2cc(-c3cccc4c(C)ccnc34)cc(=O)o2)s1` [Compound 267, 4-(4-methylquinolin-8-yl)-N-(5-(methylthio)-1,3,4-thiadiazol-2-yl)-2-oxo-2H-pyran-6-carboxamide], the IC50 fell in the range of 100 to 500 nM.

For `CSc1nnc(NC(=O)c2onc3ccc(CO)cc23)s1` [Compound 191, 5-(hydroxymethyl)-N-(5-(methylthio)-1,3,4-thiadiazol-2-yl)benzo[c]isoxazole-3-carboxamide], the 50% inhibitory concentration (IC50) was at least 1000 nM.

Turning to `CSc1nnc(NC(=O)c2onc3c2CCCC3=O)s1` [Compound 195, N-(5-(methylthio)-1,3,4-thiadiazol-2-yl)-7-oxo-4,5,6,7-tetrahydrobenzo[c]isoxazole-3-carboxamide], the IC50 is at least 1000 nM.

For `CSc1nnc(NC(=O)c2nnc(N3CCCC[C@H]3c3ccccc3)o2)s1` (single isomer, unassigned) [Compound 122*], the 50% inhibitory concentration (IC50) was 100 to 500 nM.

On to `O=C(Nc1nnc(-c2ccccc2Cl)s1)c1cc(=O)c2cccc(O)c2[nH]1` [Compound 51, N-(5-(2-chlorophenyl)-1,3,4-thiadiazol-2-yl)-8-hydroxy-4-oxo-1,4-dihydroquinoline-2-carboxamide], for which the IC50 lay within 500 to 1000 nM.

Consider `CSc1nnc(NC(=O)c2cc3c(C)cc(F)cc3[nH]2)s1` [Compound 78, 6-fluoro-4-methyl-N-(5-(methylthio)-1,3,4-thiadiazol-2-yl)-1H-indole-2-carboxamide], for which the IC50 was 500 to 1000 nM.

For `CSc1nnc(NC(=O)c2cc(-c3cccc4c3cnn4C)cc(=O)o2)s1` [Compound 269, 4-(1-methyl-1H-indazol-4-yl)-N-(5-(methylthio)-1,3,4-thiadiazol-2-yl)-2-oxo-2H-pyran-6-carboxamide], the IC50 was in the range of 100 to 500 nM.

For the compound `CSc1nnc(NC(=O)c2cc(-c3ccccc3)cc(=O)o2)s1` [Compound 213, N-[5-(methylsulfanyl)-1,3,4-thiadiazol-2-yl]-6-oxo-4-phenylpyran-2-carboxamide], the IC50 lay within 100 to 500 nM.

Regarding `O=C(Nc1ccccc1Cl)c1nnn2ccc(=O)[nH]c12` [Compound 97, N-(2-chlorophenyl)-5-oxo-4H-[1,2,3]triazolo[1,5-a]pyrimidine-3-carboxamide], the IC50 is at least 1000 nM.

Regarding `CSc1nnc(NC(=O)c2cncc(-c3cccs3)c2)s1` [Compound 96, N-(5-(methylthio)-1,3,4-thiadiazol-2-yl)-5-(thiophen-2-yl)-nicotinamide], the IC50 fell in the range of 500 to 1000 nM.

On to `CSc1nnc(NC(=O)c2nnc(Cc3ccccc3)o2)s1` [Compound 259, 5-benzyl-N-(5-methylsulfanyl-1,3,4-thiadiazol-2-yl)-1,3,4-oxadiazole-2-carboxamide], for which the IC50 is 500 to 1000 nM.

As to `CSc1nnc(NC(=O)c2cc(C(=O)O)no2)s1` [Compound 16, 5-((5-(methylthio)-1,3,4-thiadiazol-2-yl)carbamoyl)isoxazole-3-carboxylic acid], the IC50 was 100 to 500 nM.

As to `CSc1nnc(NC(=O)c2cc(-c3cccc4ccccc34)cc(=O)o2)s1` [Compound 253, N-(5-methylsulfanyl-1,3,4-thiadiazol-2-yl)-4-(1-naphthyl)-6-oxo-pyran-2-carboxamide], the IC50 was in the range of 100 to 500 nM.

In the case of `CSc1nnc(NC(=O)c2cc(Cc3ccccc3)no2)s1` [Compound 233, 3-benzyl-N-[5-(methylsulfanyl)-1,3,4-thiadiazol-2-yl]-1,2-oxazole-5-carboxamide], the IC50 fell in the range of 500 to 1000 nM.

Turning to `COc1cccc(-c2cc(C(=O)Nc3nnc(SC)s3)on2)c1` [Compound 212, 3-(3-methoxyphenyl)-N-[5-(methylsulfanyl)-1,3,4-thiadiazol-2-yl]-1,2-oxazole-5-carboxamide], the IC50 is at least 1000 nM.

For the compound `CSc1nnc(NC(=O)c2cc(-c3cccc4c3OCCN4)cc(=O)o2)s1` [Compound 275, 4-(3,4-dihydro-2H-benzo[b][1,4]oxazin-8-yl)-N-(5-(methylthio)-1,3,4-thiadiazol-2-yl)-2-oxo-2H-pyran-6-carboxamide], the IC50 lay in the range of 100 to 500 nM.

Turning to `O=C(Nc1nnc(-c2ccccc2Cl)s1)c1ccno1` [Compound 6, N-(5-(2-chlorophenyl)-1,3,4-thiadiazol-2-yl)isoxazole-5-carboxamide], the 50% inhibitory concentration (IC50) was 100 to 500 nM.

Consider `COc1ccc2noc(C(=O)Nc3nnc(SC)s3)c2c1` [Compound 224, 5-methoxy-N-[5-(methylsulfanyl)-1,3,4-thiadiazol-2-yl]-2,1-benzoxazole-3-carboxamide], for which the IC50 was at least 1000 nM.
